Measurements reported in patent US12090204B2, “Photodynamic therapy compositions and methods of use thereof” (Pinnacle Biologics, Inc., priority 2020, dated 2024).

Experiments:
S. enterica (−) = assay: porfimer sodium aPDT, planktonic culture; type: cell-based, Salmonella enterica; conditions: 630 nm, 200 J/cm2, porfimer sodium 125 μg/mL
Description: Bacteria were routinely cultured using tryptic soy broth or agar at 37° C. in a 5% CO2 incubator. Bacteria were isolated and suspended with 0.9% NaCl to an Optical Density (OD) of 0.1 taken at 630 nm, to generate the inoculum used for either planktonic or biofilm assays.
Experiments using planktonic cultures were carried out using M. catarrhalis, as a standard for further comparisons and to determine the effective drug concentration, porfimer sodium incubation time and light dose parameters which would provide an effective cell kill at the level of 5-7 logs. Once determined the experiments were repeated for all other bacterial strains examined.
The colony forming units (CFU) per mL of the starting inoculum for every experiment was determined by dilution plating. […]
Bacteria were exposed to 630 nm laser light via a fiber optic with a lens affixed to the distal end to provide a uniform diverging light field. […] Power output of the laser was measured using a UDT/Gamma Scientific 371 optical power meter and an integrating sphere. […]
Biofilms were formed on glass coupons in culture dishes containing a bacterial inoculum for 48 hours under conditions specific to the strain. […] Power output of the laser was measured using a UDT/Gamma Scientific 371 optical power meter and an integrating sphere. […]

[1] = in vitro human skin permeation, flow through diffusion cell; type: in vitro ADME; conditions: 24 hours post application
Description: A study was completed to show the ability of the formulation to deliver the drug into human skin in an in vitro setting, while retaining the API within the appropriate skin layers.
In this experiment, TEWL for each diffusion cell would was measured and recorded before test article applications. A range of not more than 25 g/m2/h will be acceptable for this study. An automated in-line flow through diffusion cell system (PermeGear Collector FC 33, Version 3.1) was used to assess drug in the skin permeation experiment. Test articles were uniformly dispensed onto the skin tissue surface using a positive displacement pipette, set to deliver 7.8 μL. The study was performed under dark environment and closed to ambient conditions. […] The swabs and the tape strips were analyzed upon request. […] The separated samples were placed in respective pre-weighed labelled vials and weight of tissues were recorded.
Epidermal and dermal samples were processed and homogenized while maintaining a dark environment using the following protocol: 500 μL of homogenizing mixture, Water: Acetonitrile, 1:1 (v/v), was added to the labelled tubes containing the skin samples. […] The following samples were analyzed for drug content: Receptor solution samples at different time-points; skin samples (epidermis and dermis for each cell at the final time point), tape strips and cotton swabs analyzed for mass balance determination. […]

**Q.** With porfimer sodium as the substance, how does the Rate of kill (S. enterica (−)) read?
**A.** Its Rate of kill is 6Log.

**Q.** What about the “skin layer where porfimer sodium permeation was found” value [1] of the same substance?
**A.** Its value is “predominantly found in the epidermal layers of the skin”.
